The source of these data is patent US20230255906A1, “Targeting Serpin B9 in Cancer” (The Brigham and Women`s Hospital, Inc., priority 2020, published 2023).

For test [1], the system named is B16-WT mouse melanoma tumors. Briefly: B16 melanoma tumor model in C57BL/6 mice. The format is in vivo. The method, then:
(§1) Mice were anesthetized with isoflurane, and tumor cell lines (B16, A375, and 4T1) were gently injected subcutaneously in the flanks or mammary glands of mice. One hundred thousand cells (1×10^5 cells) were injected per mouse for most of the experiments. However, twenty-five thousand cells (25×10^3 cells) were injected per mouse for the experiments using the compound of Formula (III). Upon 4 hrs post-implantation, 300 μg of the compound of Formula (III) was administered twice a day intraperitoneally for 14 days. Tumor growth was monitored three times per week by digital caliper (Fisherbrand™ Traceable™ Digital Calipers).
The anti-tumor activity of the compound of Formula (III) in vivo was assessed. […] Treatment with the compound of Formula (III) increased the median survival time (MST) of mice bearing B 16-WT mouse melanoma tumors and receiving treatment with the compound of Formula (III) as compared to mice bearing B16-WT melanoma tumors and not receiving treatment (MST=39 days vs MST=26 days, respectively) (FIG. 51B). Next, the effect of the compound of Formula (III) on tumor immunity was examined.
The efficacy of the compound of Formula (III) was assessed in C57BL/6J mice (FIG. 18). B16 mouse melanoma cells were implanted subcutaneously into the right flanks of C57BL/6J mice, and the mice were randomized into three groups: (1) no treatment (control), (2) treatment with anti-PD1, and (3) treatment with Formula (III). The mice in the anti-PD1 group received 200 μg of anti-PD1 iv every 3 days, and those in the Formula (III) group received 300 μg of Formula (III) twice a day consecutively for 14 days.
A survival study using the compound of Formula (IV) in mice harboring B16 melanoma was performed. Mice implanted with B16 tumors were treated with the compound of Formula (IV) (n=8) and compared to a control group having B16 tumors and not receiving treatment with the compound of Formula (IV) (n=8).

The next test deals with T1, MBP-Sb9 (Homo sapiens, UniProt P50453).
T1 construct: made in house
T1 sequence (P50453 2-376): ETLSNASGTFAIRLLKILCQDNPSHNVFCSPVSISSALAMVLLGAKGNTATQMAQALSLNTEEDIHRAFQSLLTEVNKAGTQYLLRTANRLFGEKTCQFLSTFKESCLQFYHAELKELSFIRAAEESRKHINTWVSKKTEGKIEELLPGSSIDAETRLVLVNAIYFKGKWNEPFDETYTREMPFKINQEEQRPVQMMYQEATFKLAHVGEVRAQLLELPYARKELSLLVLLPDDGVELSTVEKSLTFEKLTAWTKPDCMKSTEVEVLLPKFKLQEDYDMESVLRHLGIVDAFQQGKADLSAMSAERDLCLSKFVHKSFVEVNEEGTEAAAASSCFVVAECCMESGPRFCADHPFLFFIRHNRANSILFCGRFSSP
Briefly: Saturation-Transfer Difference (STD) NMR assay. The format is binding. The settings on record: 420 μM compound, 45 μM Sb9 protein, PBS pH 7.0, 25° C. The source says:
The Saturation-Transfer Difference (STD) NMR assay was used to evaluate the binding of the compound of Formula (III) to Sb9. […] The saturation period was 3.0 seconds with irradiation at 0 ppm (on-resonance excitation) and −20 ppm (off-resonance excitation). The number of scans was 160 for the on and off-resonance spectra, respectively. Spectra were processed using Topspin software and apodized with exponential multiplication with 1.0 Hz line-broadening.
The Saturation-Transfer Difference (STD) NMR assay was used to evaluate the binding of the compounds of Formulas (I) and (II) to Sb9. […] The saturation period was 3.0 seconds with irradiation at 0.7 ppm (on-resonance excitation) and 20 ppm (off-resonance excitation). The number of scans was 800. The spectra were processed using Topspin software with 1.0 Hz line-broadening.
The Saturation-Transfer Difference (STD) NMR assay as described herein was used to evaluate the binding of the compound of Formula (III) to Sb9.

A further test deals with 4T1 breast tumors. In words: 4T1 breast tumor model in BALB/c mice. It is filed as in vivo, mouse. To be noted: i.p. twice a day 14 days. How it is done:
as §1
Sb9 is highly expressed in human primary breast tumor cells (FIG. 6D) and in the stromal cells within the TME (FIGS. 6D-6E). Whether the compound of Formula (III) could be used to treat mice implanted with 4T1 breast tumor cells was therefore determined. […] Treatment with the compound of Formula (III) increased the median survival time (MST) of mice bearing 4T1 breast tumors and receiving treatment with the compound of Formula (III) as compared to mice bearing 4T1 breast tumors and not receiving treatment (MST=28 days vs MST=22 days, respectively) (FIG. 6G).
For mouse Breast Cancer model, 1×10^5 4T1 cells were subcutaneously implanted into the fourth mammary pad of BABL/c mice, and mice were separated randomly into three groups: Control, compound of Formula (I), and compound of Formula (II). In the compound of Formula (I) group, mice were treated with the compound of Formula (I) for 14 days consecutively ([…], i.p, twice a day). In the compound of Formula (II) group, mice were administrated the compound of Formula (II) 14 days consecutively (300 μg/mouse, i.p, twice a day). Tumor sizes were measured every 3 days from day 5 post-tumor implantation and calculated with formula length×width^2/2.

The next test has as its system cancer cells. In words: Caspase-3 immunofluorescence in cancer cells. It is filed as cell-based. To be noted: 200 μM, 48 hrs. The method, then:
1×10^4 cancer cells were seeded in an 8-well chamber and treated with 200 μM of the compounds of Formulas (I) and (II) for 48 hrs. Controls were the equal amount of DMSO. Cells were stained with anti-caspase3. DAPI was used to counterstain the cell nuclei. The stained tissue sections were visualized using an EVOS™ FL Auto 2 Imaging System.

The subject of another test is B16 melanoma cells. Briefly: Caspase-3 activity assay (EnzChek Caspase-3 Assay Kit), caspase-3 induction in tumor cells. To be noted: for Caspase-3 induction, Normalized to Formula (III) (%): relative to compound of Formula (III). The format is cell-based, mouse. An outline of the steps: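 B16 melanoma cells exposed to compounds for 24 h, lysed on ice 30 min, and lysate incubated with Z-DEVD-R110 substrate about 30 min at room temperature. Fluorescence read at ~496/520 nm against untreated-cell and no-enzyme controls; caspase-3 induction serves as surrogate for GrB activity from Sb9 inhibition.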

Consider `NC(=O)c1ccc(O)c(O)c1` [Formula (IV), 3,4-dihydroxybenzamide], for which the “tumor size vs Control group” value in test [1] (Day 22 post-tumor implantation (FIG. 17A)) is “decreased”. The “melanoma progression in vivo” value in test [1] (mice bearing B16 tumors, n=8 (FIG. 17A)) is “suppressed melanoma progression”. Besides, the “median survival time (MST)” value in test [1] (mice bearing B16 tumors, n=8 (FIG. 17B)) amounted to 34 days. For the same molecule, the “binding to MBP-Sb9 by STD NMR” value at MBP-Sb9 is “clearly show inter-molecular interaction of all aromatic peaks”. Take `COC(=O)c1cc(N)c(O)cc1NC(=O)c1ccccc1` [Formula (II), methyl 5-amino-2-benzamido-4-hydroxybenzoate]: the “tumor size vs Control group” value in the test on 4T1 breast tumors (Day 14 post-tumor implantation) is on record as “significantly decreased”. In addition, in the test with cancer cells, the “caspase-3 expression compared to DMSO” value is listed as “significantly increased caspase-3 expression” and the “increase of caspase-3 expression, comparison between compounds” value is recorded as “higher than the group treated with the compound of Formula (I)”. For the same molecule, on MBP-Sb9, the “binding to MBP-Sb9 by STD NMR” value is given as “confirmed the binding activities”.

For `COC(=O)c1cc(N)c(O)cc1NC(=O)OC(C)(C)C` [Formula (I), methyl 5-amino-2-((tert-butoxycarbonyl)amino)-4-hydroxybenzoate], the “tumor size vs Control group” value with 4T1 breast tumors (Day 11 post-tumor implantation) and in the test with 4T1 breast tumors (Day 14 post-tumor implantation) was “significantly decreased” throughout. The “caspase-3 expression compared to DMSO” value in the test with cancer cells was “significantly increased caspase-3 expression”. Moreover, the “binding to MBP-Sb9 by STD NMR” value at MBP-Sb9 was “confirmed the binding activities”. As for `CCN(C)C(=O)c1ccc2nc(S)oc2c1` [N-ethyl-N-methyl-2-sulfanyl-1,3-benzoxazole-6-carboxamide], the “Caspase-3 induction, Normalized to Formula (III) (%)” value in the test with B16 melanoma cells is −6.201%. As for `CCCOC1CCCN(C(=O)c2ccc3nc(-c4cccc(OC)c4)oc3c2)C1` (stereo not shown) [2-(3-methoxyphenyl)-6-[(3-propoxy-1-piperidinyl)carbonyl]-1,3-benzoxazole], in the test with B16 melanoma cells, the “Ratio of caspase-3 activity to Formula (III)” value (from here on “Ratio of caspase-3 activity”) was found to be 0.1495.

For `COc1cc(C(=O)NCC2CCOC2)ccc1OC(C)C` (stereo not shown) [3-methoxy-N-[(oxolan-3-yl)methyl]-4-(propan-2-yloxy)benzamide], the “Caspase-3 induction, Normalized to Formula (III) (%)” value with B16 melanoma cells is recorded as −2.673%. The same measure, in the same setting: then `Cc1nc2c(C(=O)NCc3ccccc3)cccc2o1` [N-benzyl-2-methyl-1,3-benzoxazole-4-carboxamide], with −46.2057%.

Consider `CCn1cc(CNC(=O)c2ccc3oc(-c4cccc(F)c4)nc3c2)cn1` [N-[(1-ethyl-1H-pyrazol-4-yl)methyl]-2-(3-fluorophenyl)-1,3-benzoxazole-5-carboxamide], for which the “Ratio of caspase-3 activity” value with B16 melanoma cells was determined as 1.163. With `CN(C)c1nc2c(C(=O)NCc3ccccc3)cccc2o1` [N-benzyl-2-(dimethylamino)-1,3-benzoxazole-4-carboxamide], in the test with B16 melanoma cells, the “Caspase-3 induction, Normalized to Formula (III) (%)” value is 61.2163%. For the molecule `COC(=O)CCCNC(=O)c1ccc2nc(-c3cccc(OC)c3)oc2c1` [methyl 4-({[2-(3-methoxyphenyl)-1,3-benzoxazol-6-yl]carbonyl}amino)butanoate], in the test with B16 melanoma cells, the “Ratio of caspase-3 activity” value worked out at 0.3858.

`CN(C)c1nc2cccc(C(=O)NC3CCCC3)c2o1` [N-cyclopentyl-2-(dimethylamino)-1,3-benzoxazole-7-carboxamide]: the “Caspase-3 induction, Normalized to Formula (III) (%)” value with B16 melanoma cells is −47.699%. As for `O=C(NCCCn1cccn1)c1ccc2oc(-c3cccc(F)c3)nc2c1` [2-(3-fluorophenyl)-N-[3-(1H-pyrazol-1-yl)propyl]-1,3-benzoxazole-5-carboxamide], the “Ratio of caspase-3 activity” value in the test on B16 melanoma cells is 0.9113. Take `COCCCNC(=O)c1ccc2nc(S)oc2c1` [N-(3-methoxypropyl)-2-sulfanyl-1,3-benzoxazole-6-carboxamide]: in the test on B16 melanoma cells, the “Caspase-3 induction, Normalized to Formula (III) (%)” value is 15.2459%.
